# Experimental data reported in ChEMBL document CHEMBL4251601 (Eur J Med Chem, 2018).
# Legend:
# [1] = molecular target: Casein kinase I isoform alpha (Homo sapiens) (UniProt P48729); test: Inhibition of recombinant full length human GST-tagged CK1alpha expressed in baculovirus expression system at 1 uM by Z'-Lyte assay relative to control
# [2] = molecular target: G protein-coupled receptor kinase 3 (Homo sapiens) (UniProt P35626); test: Inhibition of recombinant human full length GST-tagged GRK3 expressed in baculovirus expression system at 0.1 uM by Z'-Lyte assay relative to control
# Chain of G protein-coupled receptor kinase 3 (Homo sapiens) (P35626 whole entry): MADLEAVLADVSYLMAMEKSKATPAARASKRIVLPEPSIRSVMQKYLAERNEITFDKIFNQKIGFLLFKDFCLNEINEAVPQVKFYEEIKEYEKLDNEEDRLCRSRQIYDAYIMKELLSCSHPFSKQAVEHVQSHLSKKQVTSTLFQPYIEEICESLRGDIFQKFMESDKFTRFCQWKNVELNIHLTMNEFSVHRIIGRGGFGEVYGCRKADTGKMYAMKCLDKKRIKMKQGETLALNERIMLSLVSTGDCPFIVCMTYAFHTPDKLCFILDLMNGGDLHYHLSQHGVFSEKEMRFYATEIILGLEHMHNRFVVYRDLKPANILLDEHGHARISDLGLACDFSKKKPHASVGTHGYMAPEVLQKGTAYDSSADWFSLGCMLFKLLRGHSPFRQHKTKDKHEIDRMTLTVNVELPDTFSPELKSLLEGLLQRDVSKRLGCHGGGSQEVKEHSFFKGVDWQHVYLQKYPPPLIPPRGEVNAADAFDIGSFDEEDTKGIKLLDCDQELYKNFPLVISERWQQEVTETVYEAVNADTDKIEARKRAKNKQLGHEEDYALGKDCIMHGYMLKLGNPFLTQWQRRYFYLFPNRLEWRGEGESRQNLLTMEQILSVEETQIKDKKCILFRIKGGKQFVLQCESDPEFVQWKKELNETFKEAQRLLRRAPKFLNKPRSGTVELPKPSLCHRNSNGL
# [3] = test system: U-87 MG; test: Antiproliferative activity against human U87MG cells after 72 hrs by DAPI staining based assay; type: functional, cell-based, U-87MG ATCC
# [4] = molecular target: Platelet-derived growth factor receptor beta (Homo sapiens) (UniProt P09619); test: Inhibition of recombinant human His-tagged PDGFRbeta cytoplasmic domain expressed in baculovirus expression system at 1 uM by Z'-Lyte assay relative to control
# [5] = Fraction unbound in CD-1 mouse brain at 2 uM incubated for 4 hrs by LC/MS/MS analysis based equillibriun dialysis method; type: ADME, tissue-based
# [6] = molecular target: Tyrosine-protein kinase Lck (Homo sapiens) (UniProt P06239); test: Inhibition of recombinant human full length His-tagged LCK expressed in baculovirus expression system at 1 uM by Z'-Lyte assay relative to control
# [7] = AUC (0 to infinity) in Sprague-Dawley rat at 5 mg/kg, po administered as single dose by LC-MS/MS analysis; type: ADME, organism-based; parameters: dose 5 mg/kg, route oral, time infinity; conditions: Sprague-Dawley, in vivo
# [8] = molecular target: Tyrosine-protein kinase JAK3 (Homo sapiens) (UniProt P52333); test: Inhibition of recombinant human GST-tagged JAK3 expressed in baculovirus expression system at 0.1 uM by TR-FRET assay relative to control
# Chain of Tyrosine-protein kinase JAK3 (Homo sapiens) (P52333 whole entry): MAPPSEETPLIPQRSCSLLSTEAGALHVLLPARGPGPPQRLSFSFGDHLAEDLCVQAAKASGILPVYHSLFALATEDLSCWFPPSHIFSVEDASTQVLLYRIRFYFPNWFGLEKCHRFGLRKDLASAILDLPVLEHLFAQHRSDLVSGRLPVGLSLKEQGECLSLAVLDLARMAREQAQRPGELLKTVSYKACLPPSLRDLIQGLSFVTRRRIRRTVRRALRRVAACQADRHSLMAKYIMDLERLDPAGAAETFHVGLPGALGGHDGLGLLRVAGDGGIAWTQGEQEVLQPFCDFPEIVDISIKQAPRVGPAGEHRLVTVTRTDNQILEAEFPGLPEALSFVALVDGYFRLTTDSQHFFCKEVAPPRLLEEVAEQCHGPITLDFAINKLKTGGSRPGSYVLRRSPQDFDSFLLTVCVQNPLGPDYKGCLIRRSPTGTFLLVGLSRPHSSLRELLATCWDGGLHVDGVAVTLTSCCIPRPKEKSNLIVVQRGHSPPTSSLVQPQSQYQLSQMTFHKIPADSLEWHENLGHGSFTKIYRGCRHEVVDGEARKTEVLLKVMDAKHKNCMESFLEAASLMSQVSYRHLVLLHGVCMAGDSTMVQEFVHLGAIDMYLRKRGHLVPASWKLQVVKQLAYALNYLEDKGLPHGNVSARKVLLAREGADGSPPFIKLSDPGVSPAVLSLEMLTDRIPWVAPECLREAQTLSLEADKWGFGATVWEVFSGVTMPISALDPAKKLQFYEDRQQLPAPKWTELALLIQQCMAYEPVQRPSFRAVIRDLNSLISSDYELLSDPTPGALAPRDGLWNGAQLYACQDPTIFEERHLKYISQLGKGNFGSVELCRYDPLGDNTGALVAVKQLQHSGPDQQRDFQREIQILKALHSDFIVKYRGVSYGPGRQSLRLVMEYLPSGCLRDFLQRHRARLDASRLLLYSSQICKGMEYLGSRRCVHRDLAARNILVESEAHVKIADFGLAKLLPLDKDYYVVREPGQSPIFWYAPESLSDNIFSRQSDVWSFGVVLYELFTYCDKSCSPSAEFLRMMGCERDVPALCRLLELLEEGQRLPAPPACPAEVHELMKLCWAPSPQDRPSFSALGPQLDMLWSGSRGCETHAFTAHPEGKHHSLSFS
# [9] = molecular target: Aurora kinase B (Homo sapiens) (UniProt Q96GD4); test: Inhibition of recombinant full length human His-tagged AURKB expressed in baculovirus expression system at 1 uM by Z'-Lyte assay relative to control
# [10] = AUC (0 to 48 hrs) in CD-1 mouse plasma at 10 mg/kg, po administered as single dose by LC-MS/MS analysis; type: ADME, organism-based; parameters: time < 48 hr, dose 10 mg/kg, route oral
# [11] = molecular target: Casein kinase II subunit alpha (Homo sapiens) (UniProt P68400); test: Inhibition of recombinant full length human His-tagged CK2alpha1 expressed in baculovirus expression system at 1 uM by Z'-Lyte assay relative to control
# [12] = test system: Mus musculus; test: In vivo inhibition of CDK4/6 in nude mouse xenografted with human COLO205 cells assessed as reduction in Ser-780-phosphorylated Rb level in tumor administered via oral gavage after 24 hrs by Western blot analysis; type: functional, organism-based
# [13] = molecular target: Serine/threonine-protein kinase 26 (Homo sapiens) (UniProt Q9P289); test: Inhibition of recombinant human full length GST-tagged MST4 expressed in baculovirus expression system at 1 uM by Z'-Lyte assay relative to control
# Chain of Serine/threonine-protein kinase 26 (Homo sapiens) (Q9P289 2-416 limits assumed): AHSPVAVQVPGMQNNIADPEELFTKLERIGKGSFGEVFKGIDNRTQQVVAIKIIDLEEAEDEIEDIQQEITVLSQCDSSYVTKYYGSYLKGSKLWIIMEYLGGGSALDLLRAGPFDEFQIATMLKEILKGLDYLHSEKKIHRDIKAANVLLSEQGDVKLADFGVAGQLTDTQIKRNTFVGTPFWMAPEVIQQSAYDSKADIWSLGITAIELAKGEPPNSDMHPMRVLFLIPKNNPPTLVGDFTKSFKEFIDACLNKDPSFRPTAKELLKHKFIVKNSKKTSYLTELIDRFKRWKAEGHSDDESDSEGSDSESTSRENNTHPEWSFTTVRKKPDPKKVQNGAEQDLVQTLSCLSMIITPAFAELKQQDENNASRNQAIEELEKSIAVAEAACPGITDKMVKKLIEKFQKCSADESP
# [14] = molecular target: Tyrosine-protein kinase BTK (Homo sapiens) (UniProt Q06187); test: Inhibition of recombinant full length human His-tagged BTK expressed in baculovirus expression system at 1 uM by TR-FRET assay relative to control
# [15] = molecular target: Protein-tyrosine kinase 6 (Homo sapiens) (UniProt Q13882); test: Inhibition of recombinant human full length His-tagged PTK6 expressed in baculovirus expression system at 0.1 uM by TR-FRET assay relative to control
# Chain of Protein-tyrosine kinase 6 (Homo sapiens) (Q13882 whole entry, looked up): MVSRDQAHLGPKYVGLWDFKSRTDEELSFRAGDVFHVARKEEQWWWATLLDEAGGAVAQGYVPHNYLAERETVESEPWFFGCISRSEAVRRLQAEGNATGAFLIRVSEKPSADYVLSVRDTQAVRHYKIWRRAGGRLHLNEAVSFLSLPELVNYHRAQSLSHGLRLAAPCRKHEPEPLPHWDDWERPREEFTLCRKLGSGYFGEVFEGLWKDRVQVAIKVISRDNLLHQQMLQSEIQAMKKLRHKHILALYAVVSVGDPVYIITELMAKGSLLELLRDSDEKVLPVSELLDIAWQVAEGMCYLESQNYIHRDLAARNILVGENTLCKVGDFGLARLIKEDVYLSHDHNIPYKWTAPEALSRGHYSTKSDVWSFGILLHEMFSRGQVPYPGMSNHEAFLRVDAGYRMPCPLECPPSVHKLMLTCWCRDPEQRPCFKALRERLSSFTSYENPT
# [16] = molecular target: RAC-beta serine/threonine-protein kinase (Homo sapiens) (UniProt P31751); test: Inhibition of recombinant full length human His-tagged AKT2 expressed in baculovirus expression system at 0.1 uM by TR-FRET assay relative to control
# [17] = test system: U-87 MG; test: Cell cycle arrest in human U87MG cells after assessed as accumulation at G1-phase after 24 hrs by propidium iodide staining based flow cytometry; type: functional, U-87MG ATCC
# [18] = molecular target: Casein kinase I isoform gamma-1 (Homo sapiens) (UniProt Q9HCP0); test: Inhibition of recombinant full length human GST-tagged CK1gamma1 expressed in baculovirus expression system at 1 uM by Z'-Lyte assay relative to control
# [19] = molecular target: High affinity nerve growth factor receptor (Homo sapiens) (UniProt P04629); test: Inhibition of recombinant human His-tagged TRKA cytoplasmic domain expressed in baculovirus expression system at 1 uM by Z'-Lyte assay relative to control
# [20] = molecular target: G protein-coupled receptor kinase 3 (Homo sapiens) (UniProt P35626); test: Inhibition of recombinant human full length GST-tagged GRK3 expressed in baculovirus expression system at 1 uM by Z'-Lyte assay relative to control
# [21] = molecular target: Beta-adrenergic receptor kinase 1 (Homo sapiens) (UniProt P25098); test: Inhibition of recombinant human full length His-tagged GRK2 expressed in baculovirus expression system at 0.1 uM by Z'-Lyte assay relative to control
# [22] = molecular target: Ephrin type-A receptor 2 (Homo sapiens) (UniProt P29317); test: Inhibition of recombinant human GST-tagged EPHA2 cytoplasmic domain expressed in baculovirus expression system at 0.1 uM by Z'-Lyte assay relative to control
# [23] = molecular target: Tyrosine-protein kinase receptor UFO (Homo sapiens) (UniProt P30530); test: Inhibition of recombinant human N-terminal GST tagged AXL (473-end residues) expressed in baculovirus infected Sf9 cells at 1 uM by Z'-Lyte assay relative to control
# Chain of Tyrosine-protein kinase receptor UFO (Homo sapiens) (P30530 whole entry, the tested form may be a part): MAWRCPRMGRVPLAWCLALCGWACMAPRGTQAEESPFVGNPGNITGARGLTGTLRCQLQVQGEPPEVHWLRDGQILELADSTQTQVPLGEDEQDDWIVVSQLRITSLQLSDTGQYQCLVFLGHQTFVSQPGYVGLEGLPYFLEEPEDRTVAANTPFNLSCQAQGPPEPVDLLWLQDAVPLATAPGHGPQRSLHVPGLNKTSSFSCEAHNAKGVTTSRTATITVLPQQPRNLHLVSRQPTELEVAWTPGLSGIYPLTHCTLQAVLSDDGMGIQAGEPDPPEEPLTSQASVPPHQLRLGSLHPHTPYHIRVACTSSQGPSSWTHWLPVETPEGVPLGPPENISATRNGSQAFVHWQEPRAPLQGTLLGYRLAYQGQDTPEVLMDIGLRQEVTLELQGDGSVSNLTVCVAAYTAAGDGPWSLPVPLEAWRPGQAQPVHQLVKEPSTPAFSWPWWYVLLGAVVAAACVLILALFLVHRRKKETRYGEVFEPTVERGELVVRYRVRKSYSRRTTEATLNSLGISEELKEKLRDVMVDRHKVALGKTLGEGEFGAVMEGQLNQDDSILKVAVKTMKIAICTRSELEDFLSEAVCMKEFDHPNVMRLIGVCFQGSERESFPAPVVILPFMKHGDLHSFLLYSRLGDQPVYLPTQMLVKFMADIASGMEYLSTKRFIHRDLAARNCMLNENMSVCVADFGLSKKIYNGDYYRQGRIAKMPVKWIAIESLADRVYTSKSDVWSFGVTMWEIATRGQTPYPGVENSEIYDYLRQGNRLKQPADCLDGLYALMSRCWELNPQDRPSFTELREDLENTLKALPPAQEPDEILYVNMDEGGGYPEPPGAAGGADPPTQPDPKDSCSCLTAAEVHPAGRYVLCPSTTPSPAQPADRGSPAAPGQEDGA
# [24] = test system: U-87 MG; test: Antitumor activity against luciferase-fused human U87MG cells orthotopically xenografted in nude mouse assessed as tumor growth inhibition at 50 mg/kg, po qd for 4 weeks by bioluminescence imaging relative to control; type: functional, U-87MG ATCC; conditions: 672 h, read-out: TGI
# [25] = molecular target: Fibroblast growth factor receptor 1 (Homo sapiens) (UniProt P11362); test: Inhibition of recombinant human His-tagged FGFR1 cytoplasmic domain expressed in baculovirus expression system at 1 uM by Z'-Lyte assay relative to control
# [26] = molecular target: PI3-kinase p110-alpha/p85-alpha (Homo sapiens) (UniProt P27986+P42336); test: Inhibition of recombinant full-length human N-terminal His6-tagged p110alpha/p85alpha expressed in baculovirus infected Sf21 cells at 0.1 uM by ADP-Glo assay relative to control
# [27] = AUC (0 to infinity) in CD-1 mouse plasma at 10 mg/kg, po administered as single dose by LC-MS/MS analysis; type: ADME, organism-based; parameters: dose 10 mg/kg, time infinity, route oral
# [28] = test system: Epidermal growth factor receptor (Homo sapiens), P00533 [L858R,T790M]; test: Inhibition of recombinant human GST-tagged EGFR T790M/L858R double mutant expressed in baculovirus expression system at 1 uM by TR-FRET assay relative to control
# Chain of Epidermal growth factor receptor (Homo sapiens), P00533 [L858R,T790M] (P00533 whole entry T790M/L858R, looked up): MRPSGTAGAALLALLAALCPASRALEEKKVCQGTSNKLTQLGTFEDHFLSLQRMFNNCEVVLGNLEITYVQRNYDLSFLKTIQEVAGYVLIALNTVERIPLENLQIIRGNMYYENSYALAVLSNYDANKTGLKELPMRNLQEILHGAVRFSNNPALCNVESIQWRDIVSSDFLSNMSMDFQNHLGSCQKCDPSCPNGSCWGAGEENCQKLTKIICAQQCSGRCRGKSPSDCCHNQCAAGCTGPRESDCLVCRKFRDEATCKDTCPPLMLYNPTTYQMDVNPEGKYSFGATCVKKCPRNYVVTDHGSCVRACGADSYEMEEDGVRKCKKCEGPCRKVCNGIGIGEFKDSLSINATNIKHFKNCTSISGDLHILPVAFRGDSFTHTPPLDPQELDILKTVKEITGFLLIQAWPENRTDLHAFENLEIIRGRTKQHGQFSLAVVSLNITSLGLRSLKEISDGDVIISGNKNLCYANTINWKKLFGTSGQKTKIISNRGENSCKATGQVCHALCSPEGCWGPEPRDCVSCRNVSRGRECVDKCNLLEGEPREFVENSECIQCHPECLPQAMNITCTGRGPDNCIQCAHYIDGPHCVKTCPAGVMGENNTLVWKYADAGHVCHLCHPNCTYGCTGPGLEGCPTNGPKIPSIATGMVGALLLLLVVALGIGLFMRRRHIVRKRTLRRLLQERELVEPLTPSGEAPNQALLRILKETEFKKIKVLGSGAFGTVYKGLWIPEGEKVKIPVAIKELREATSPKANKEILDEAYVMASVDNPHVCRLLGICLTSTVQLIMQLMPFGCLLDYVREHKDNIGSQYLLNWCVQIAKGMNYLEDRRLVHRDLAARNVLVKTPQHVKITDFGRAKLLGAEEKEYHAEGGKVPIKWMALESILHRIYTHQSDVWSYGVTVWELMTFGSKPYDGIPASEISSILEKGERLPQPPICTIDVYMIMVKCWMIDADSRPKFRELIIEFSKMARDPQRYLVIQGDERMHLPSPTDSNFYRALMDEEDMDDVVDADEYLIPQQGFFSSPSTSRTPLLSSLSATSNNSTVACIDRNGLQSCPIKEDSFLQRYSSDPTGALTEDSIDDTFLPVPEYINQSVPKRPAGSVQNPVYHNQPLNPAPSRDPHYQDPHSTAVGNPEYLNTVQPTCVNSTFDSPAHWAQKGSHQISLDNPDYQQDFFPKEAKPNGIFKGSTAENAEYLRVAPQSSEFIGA
# [29] = molecular target: Serine/threonine-protein kinase 26 (Homo sapiens) (UniProt Q9P289); test: Inhibition of recombinant human full length GST-tagged MST4 expressed in baculovirus expression system at 0.1 uM by Z'-Lyte assay relative to control
# [30] = test system: U-87 MG; test: Antitumor activity against luciferase-fused human U87MG cells orthotopically xenografted in nude mouse assessed as tumor growth inhibition at 6.25 mg/kg, po qd for 4 weeks by bioluminescence imaging relative to control; type: functional, U-87MG ATCC; conditions: 672 h, read-out: TGI
# [31] = molecular target: Tyrosine-protein kinase JAK1 (Homo sapiens) (UniProt P23458); test: Inhibition of recombinant human GST-tagged JAK1 expressed in baculovirus expression system at 1 uM by TR-FRET assay relative to control
# [32] = molecular target: Tyrosine-protein kinase Tec (Homo sapiens) (UniProt P42680); test: Inhibition of recombinant human full length His-tagged TEC expressed in baculovirus expression system at 0.1 uM by TR-FRET assay relative to control
structure (smiles),measurement,setting,value
CC1=Nc2c(F)cc(-c3nc(Nc4ccc(C5CCN(C)CC5)cn4)ncc3F)cc2C12CCCC2 [CROZBACICLIB],inhibition,[1],5%
same,inhibition,[2],-7%
same,IC50,[3],15.3 nM
same,inhibition,[4],20%
same,Fu,[5],0.04%
same,inhibition,[6],13%
same,AUC(0-inf),[7],1580 ng·h/mL
same,inhibition,[8],56%
same,inhibition,[9],6%
same,AUC(0-t) at 48 h,[10],9060 ng·h/mL
same,inhibition,[11],23%
same,inhibition,[12],Dose-dependent effect
same,inhibition,[13],-1%
same,inhibition,[14],5%
same,inhibition,[15],14%
same,inhibition,[16],1%
same,Emax,[17],41.1%
same,Activity,[17]; U-87MG ATCC,Dose-dependent effect
same,inhibition,[18],5%
same,inhibition,[19],48%
same,inhibition,[20],-7%
same,inhibition,[21],-2%
same,inhibition,[22],6%
same,inhibition,[23],26%
same,inhibition in vivo at 50 mg/kg,[24],99%
same,inhibition,[25],13%
same,inhibition,[26],-3%
same,AUC(0-inf),[27],9110 ng·h/mL
same,inhibition,[28],79%
same,inhibition,[29],-5%
same,inhibition in vivo at 6.25 mg/kg,[30],79%
same,inhibition,[31],24%
same,inhibition,[32],11%
